Source: ChEMBL document CHEMBL1133206, “Antifungal rapamycin analogues with reduced immunosuppressive activity” (Bioorg Med Chem Lett, 2000)
pIC50: −log10 of the molar value. Values after ≈ are worked out from the molar mass of the structure shown.

What was measured:
[1] = molecular target: Peptidyl-prolyl cis-trans isomerase FKBP1A (Homo sapiens, UniProt P62942); test: The compound was tested for binding affinity to FK506 binding protein 12 using Rapamycin as control, with an ascomycin conjugate of alkaline phosphatase in a competition binding assay
Candida tropicalis [2] = test: In vitro antifungal activity against Candida tropicalis (CT 750); type: functional
Nakaseomyces glabratus = test: In vitro antifungal activity against Torulopsis glabrata (TG 15545); type: functional
Candida albicans [3] = test: In vitro antifungal activity against Candida albicans (CA 38247); Weak; type: functional, organism-based
Candida albicans [4] = test: In vitro for antifungal activity against Candida albicans (CA 579a); type: functional
Candida albicans [5] = test: In vitro antifungal activity against Candida albicans (CA 10231); type: functional
Homo sapiens = species: Homo sapiens; test: Inhibitory activity against human concanavalin-A proliferation assay; type: functional
Candida albicans [6] = test: In vitro antifungal activity against Candida albicans (CA 62376); Weak; type: functional, organism-based
Aspergillus niger [7] = test: In vitro antifungal activity at a minimum inhibitory concentration (~100 ug/mL) against Aspergillus niger; Not affected; type: functional; conditions: Aspergillus niger; read-out: MIC
Candida albicans [8] = test: In vitro antifungal activity against Candida albicans (CA 442); Weak; type: functional, organism-based
Candida albicans [9] = test: In vitro antifungal activity against […] (CA 34140); Not affected.; type: functional
Pichia kudriavzevii = test: In vitro antifungal activity against Candida krusei (CK 28838); type: functional
Candida albicans [10] = test: Compound was screened in vitro for antifungal activity against Candida albicans (CA 442); weak; type: functional, organism-based
Candida albicans [11] = test: Compound was screened in vitro for antifungal activity against Candida albicans (CA 62376); weak; type: functional, organism-based
Candida albicans [12] = test: Compound was screened in vitro for antifungal activity against Candida albicans (CA 38247); weak; type: functional, organism-based
Aspergillus niger [13] = test: Compound was screened in vitro for antifungal activity at a minimum inhibitory concentration (~100 ug/mL) against Aspergillus niger; not affected; type: functional
Candida albicans [14] = test: Compound was screened in vitro for antifungal activity at a minimum inhibitory concentration (~100 ug/mL) against […] (CA 34140); not affected; type: functional
Candida tropicalis [15] = test: Compound was screened in vitro for antifungal activity against Candida tropicalis (CT 750)
Candida albicans [16] = test: Compound was screened in vitro for antifungal activity at a minimum inhibitory concentration (~100 ug/mL) against […] ([…]); Not affected; type: functional
Candida albicans [17] = test: Compound was screened in vitro for antifungal activity against Candida albicans (CA 62376); type: functional
Candida albicans [18] = test: Compound was screened in vitro for antifungal activity against Candida albicans (CA 442); type: functional
Candida albicans [19] = test: Compound was screened in vitro for antifungal activity against Candida albicans (CA 38247); type: functional
Candida albicans [20] = test: Compound was screened in vitro for antifungal and immunosuppressive activity against Candida albicans (CA 38247); type: functional
Aspergillus niger [21] = test: Compound was screened in vitro for antifungal activity at a minimum inhibitory concentration (~100 ug/mL) against Aspergillus nigerl; Not effected; type: functional

Sequence of Peptidyl-prolyl cis-trans isomerase FKBP1A (P62942 whole entry): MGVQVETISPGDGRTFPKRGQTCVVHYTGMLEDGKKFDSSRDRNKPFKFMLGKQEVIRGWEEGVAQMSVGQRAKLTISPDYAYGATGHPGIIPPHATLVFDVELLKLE

| Compound | pIC50 [1] | MIC (Candida tropicalis [2]) | MIC (Nakaseomyces glabratus) | MIC (Candida albicans [3]) | MIC (Candida albicans [4]) | MIC (Candida albicans [5]) | pIC50 (Homo sapiens) | MIC (Candida albicans [6]) | MIC (Candida albicans [8]) | MIC (Pichia kudriavzevii) | MIC (Candida albicans [17]) | MIC (Candida albicans [18]) | MIC (Candida albicans [19]) | also measured |
| --- | --- | --- | --- | --- | --- | --- | --- | --- | --- | --- | --- | --- | --- | --- |
| CO[C@@H]1C[C@H](C[C@@H](C)[C@@H]2CC(=O)[C@H](C)/C=C(\C)[C@@H](O)[C@@H](OC)C(=O)[C@H](C)C[C@H](C)/C=C/C=C/C=C(\C)[C@@H](N(O)C(=O)Oc3ccccc3)C[C@@H]3CC[C@@H](C)[C@@](O)(O3)C(=O)C(=O)N3CCCC[C@H]3C(=O)O2)CC[C@H]1O | 8.68 | 12.5 µg/mL (≈ 12.1 µM) | 1.56 µg/mL (≈ 1.51 µM) | Weak | 25 µg/mL (≈ 24.1 µM) | 12.5 µg/mL (≈ 12.1 µM) | 5.96 | Weak | Weak | 1.56 µg/mL (≈ 1.51 µM) |  |  |  | MIC (Aspergillus niger [7]): ~100 µg/mL (≈ 96.6 µM); MIC (Candida albicans [9]): ~100 µg/mL (≈ 96.6 µM) |
| COC(=O)N[C@@H]1C[C@@H]2CC[C@@H](C)[C@@](O)(O2)C(=O)C(=O)N2CCCC[C@H]2C(=O)O[C@H]([C@H](C)C[C@@H]2CC[C@@H](O)[C@H](OC)C2)CC(=O)[C@H](C)/C=C(\C)[C@@H](O)[C@@H](OC)C(=O)[C@H](C)C[C@H](C)/C=C/C=C/C=C/1C |  | 1.56 µg/mL (≈ 1.63 µM) | 0.78 µg/mL (≈ 0.815 µM) |  | 1.56 µg/mL (≈ 1.63 µM) | 1.56 µg/mL (≈ 1.63 µM) | 5.86 |  |  | 0.78 µg/mL (≈ 0.815 µM) |  |  |  | MIC (Candida albicans [10]): Weak; MIC (Candida albicans [11]): Weak; MIC (Candida albicans [12]): Weak; MIC (Aspergillus niger [13]): ~100 µg/mL (≈ 104 µM); MIC (Candida albicans [14]): ~100 µg/mL (≈ 104 µM) |
| CO[C@H]1C[C@@H]2CC[C@@H](C)[C@@](O)(O2)C(=O)C(=O)N2CCCC[C@H]2C(=O)O[C@H]([C@H](C)C[C@@H]2CC[C@@H](O)[C@H](OC)C2)CC(=O)[C@H](C)/C=C(\C)[C@@H](O)[C@@H](OC)C(=O)[C@H](C)C[C@H](C)/C=C/C=C/C=C/1C [SIROLIMUS] |  |  | < 0.1 µg/mL | Weak | 0.2 µg/mL (≈ 0.219 µM) | 0.2 µg/mL (≈ 0.219 µM) | 9.00 | Weak | Weak | 0.78 µg/mL (≈ 0.853 µM) | 0.2 µg/mL (≈ 0.219 µM) | 0.2 µg/mL (≈ 0.219 µM) | 0.2 µg/mL (≈ 0.219 µM) | MIC (Candida tropicalis [15]): 0.2 µg/mL (≈ 0.219 µM); MIC (Candida albicans [16]): ~100 µg/mL (≈ 109 µM); MIC (Aspergillus niger [7]): ~100 µg/mL (≈ 109 µM) |
| CO[C@H]1C[C@@H]2CC[C@@H](C)[C@@](O)(O2)C(=O)C(=O)N2CCCC[C@H]2C(=O)O[C@H]([C@H](C)C[C@@H]2CC[C@@H](OC(=O)c3ccc([N+](=O)[O-])cc3)[C@H](OC)C2)CC(=O)[C@H](C)/C=C(\C)[C@@H](O)[C@@H](OC)C(=O)[C@H](C)C[C@H](C)CCCC/C=C/1C |  | > 100 µg/mL |  |  | > 100 µg/mL | > 100 µg/mL |  |  |  | > 100 µg/mL | > 100 µg/mL | > 100 µg/mL |  | MIC (Candida albicans [20]): > 100 µg/mL |
| CO[C@@H]1C[C@H](C[C@@H](C)[C@@H]2CC(=O)[C@H](C)/C=C(\C)[C@@H](O)[C@@H](OC)C(=O)[C@H](C)C[C@H](C)/C=C/C=C/C=C(\C)[C@H](N(O)C(C)=O)C[C@@H]3CC[C@@H](C)[C@@](O)(O3)C(=O)C(=O)N3CCCC[C@H]3C(=O)O2)CC[C@H]1O |  | 6.25 µg/mL (≈ 6.53 µM) | 1.56 µg/mL (≈ 1.63 µM) |  | 6.25 µg/mL (≈ 6.53 µM) | 6.25 µg/mL (≈ 6.53 µM) | 7.02 |  |  | 3.12 µg/mL (≈ 3.26 µM) |  |  |  | MIC (Candida albicans [10]): Weak; MIC (Candida albicans [11]): Weak; MIC (Candida albicans [12]): Weak; MIC (Aspergillus niger [13]): ~100 µg/mL (≈ 104 µM); MIC (Candida albicans [14]): ~100 µg/mL (≈ 104 µM) |
| CO[C@H]1C[C@@H]2CC[C@@H](C)[C@@](O)(O2)C(=O)C(=O)N2CCCC[C@H]2C(=O)O[C@H]([C@H](C)C[C@@H]2CC[C@@H](OC(=O)N3CCOCC3)[C@H](OC)C2)CC(=O)[C@H](C)/C=C(\C)[C@@H](O)[C@@H](OC)C(=O)[C@H](C)C[C@H](C)CCCC/C=C/1C | < 6.00 | > 100 µg/mL |  |  | > 100 µg/mL | > 100 µg/mL |  |  |  | > 100 µg/mL |  | > 100 µg/mL | > 100 µg/mL |  |
| CO[C@H]1C[C@@H]2CC[C@@H](C)[C@@](O)(O2)C(=O)C(=O)N2CCCC[C@H]2C(=O)O[C@H]([C@H](C)C[C@@H]2CCC(O)[C@H](OC)C2)CC(=O)[C@H](C)/C=C(\C)[C@@H](O)[C@@H](OC)C(=O)[C@H](C)C[C@H](C)CCCC/C=C/1C (single isomer, unassigned; 2) |  | 1.56 µg/mL (≈ 1.7 µM) |  |  | 1.56 µg/mL (≈ 1.7 µM) | 1.56 µg/mL (≈ 1.7 µM) | 5.80 |  |  | 1.56 µg/mL (≈ 1.7 µM) | 1.56 µg/mL (≈ 1.7 µM) | 1.56 µg/mL (≈ 1.7 µM) | 1.56 µg/mL (≈ 1.7 µM) |  |
| CO[C@@H]1C[C@H](C[C@@H](C)[C@@H]2CC(=O)[C@H](C)/C=C(\C)[C@@H](O)[C@@H](OC)C(=O)[C@H](C)C[C@H](C)/C=C/C=C/C=C(\C)[C@H](N(O)C(=O)N3CCOCC3)C[C@@H]3CC[C@@H](C)[C@@](O)(O3)C(=O)C(=O)N3CCCC[C@H]3C(=O)O2)CC[C@H]1O |  | 25 µg/mL (≈ 24.3 µM) | 6.25 µg/mL (≈ 6.08 µM) | Weak | 50 µg/mL (≈ 48.6 µM) | 25 µg/mL (≈ 24.3 µM) | 5.76 | Weak | Weak | 6.25 µg/mL (≈ 6.08 µM) |  |  |  | MIC (Aspergillus niger [21]): ~100 µg/mL (≈ 97.2 µM); MIC (Candida albicans [9]): ~100 µg/mL (≈ 97.2 µM) |
| CO[C@H]1C[C@@H]2CC[C@@H](C)[C@@](O)(O2)C(=O)C(=O)N2CCCC[C@H]2C(=O)O[C@H]([C@H](C)C[C@@H]2CCC(O)[C@H](OC)C2)CC(=O)[C@H](C)/C=C(\C)[C@@H](O)[C@@H](OC)C(=O)[C@H](C)C[C@H](C)CCCC/C=C/1C (single isomer, unassigned; 3) |  | 1.56 µg/mL (≈ 1.7 µM) |  |  | 1.56 µg/mL (≈ 1.7 µM) | 1.56 µg/mL (≈ 1.7 µM) | 5.47 |  |  | 0.78 µg/mL (≈ 0.849 µM) | 0.78 µg/mL (≈ 0.849 µM) | 1.56 µg/mL (≈ 1.7 µM) | 1.56 µg/mL (≈ 1.7 µM) |  |
| CO[C@H]1C[C@@H]2CC[C@@H](C)[C@@](O)(O2)C(=O)C(=O)N2CCCC[C@H]2C(=O)O[C@H]([C@H](C)C[C@@H]2CC[C@@H](OC(=O)N(C)OC)[C@H](OC)C2)CC(=O)[C@H](C)/C=C(\C)[C@@H](O)[C@@H](OC)C(=O)[C@H](C)C[C@H](C)CCCC/C=C/1C | < 6.00 | > 100 µg/mL |  |  | > 100 µg/mL | 50 µg/mL (≈ 49.7 µM) | 5.61 |  |  | > 100 µg/mL |  |  |  |  |
| CO[C@@H]1C[C@H](C[C@@H](C)[C@@H]2CC(=O)[C@H](C)/C=C(\C)[C@@H](O)[C@@H](OC)C(=O)[C@H](C)C[C@H](C)/C=C/C=C/C=C(\C)[C@H](O)C[C@@H]3CC[C@@H](C)[C@@](O)(O3)C(=O)C(=O)N3CCCC[C@H]3C(=O)O2)CC[C@H]1O | 7.85 | 1.56 µg/mL (≈ 1.73 µM) | 0.78 µg/mL (≈ 0.867 µM) | Weak | 3.12 µg/mL (≈ 3.47 µM) | 1.56 µg/mL (≈ 1.73 µM) | 8.20 | Weak | Weak | 0.78 µg/mL (≈ 0.867 µM) |  |  |  | MIC (Aspergillus niger [7]): ~100 µg/mL (≈ 111 µM); MIC (Candida albicans [9]): ~100 µg/mL (≈ 111 µM) |
